Patent US8637556B2, “Linked Myc-max small molecule inhibitors” (University of Pittsburgh—Of the Commonwealth System of …, priority 2009, dated 2014)

How the values were obtained:
[1] = biological target: T1, c-Myc353-437 (monomeric c-Myc bHLH-ZIP) (Homo sapiens, UniProt P01106); assay: Fluorescence polarization titration, c-Myc bHLH-ZIP binding; conditions: Table 1; FP of nitrobenzofurazan moiety, c-Myc353-437; read-out: KD (c-Myc affinity, bivalent)
T1 construct: recombinant monomeric c Myc bHLH-ZIP (amino acids 353-437); 6xHis with TEV site (N, cleaved yes); made in house; host or cells: E. coli BL21DE3(pLysS)
Description: (§1) A c-Myc353-437 full-length bHLH-ZIP domain and its truncated version c-Myc390-439 were produced from the c-Myc/pET SKB3 construct, kindly supplied by Dr. S. K. Nair (University of Illinois, Urbana-Champaign), by insertion into the pET151D vector, encoding an N-terminal hexahistidine (6× His), separated by a TEV protease digestion site, with the TOPO® ligation system, and over-expressed in E. coli BL21DE3(pLysS). The 6× His tagged human Max isoform p21, with low homodimerization affinity^70, cloned into the pQE10 vector (Qiagen, Inc.), was over-expressed in E. coli M15(pRep4). Bacterial cultures were grown at 37° C. in LB medium to OD600≈0.8, then induced with 0.5 mM IPTG for 5 hours. Proteins were purified by Ni-agarose chromatography with a pH gradient elution. The 6× His tag of c-MYC353-437 and c-Myc390-439 was cleaved using TEV protease (the TEV protease was expressed in a pET24 vector [courtesy of S. K. Nair] and purified by Ni-agarose chromatography under native conditions). All the proteins were further purified by HPLC and lyophilized. Protein concentrations were determined by measurement of OD280. The synthetic peptide c-Myc363-381 is described in Follis, A. V., Hammoudeh, D. I., Wang, H., Prochownik, E & Metallo, S. J. Structural rationale for the coupled binding and unfolding of the c-Myc oncoprotein by small molecules. Chemistry & Biology 15, 1149-1155 (2008).
Samples were analyzed in a Photon Technology International QuantaMaster fluorimeter (Birmingham, N.J.) equipped with polymer sheet polarizers. Titration experiments were performed upon serial dilution of 1:1 equimolar solution of inhibitor and either c-Myc353-437, c-Myc390-439 or c-Myc363-381 in a 1×PBS buffer (137 mM NaCl, 2.7 mM KCl, 4.3 mM Na2HPO4, 1.4 mM KH2PO4, pH=7.4), 5% DMSO, over concentrations ranging between 200 μM and 1.5 nM. Excitation and emission wavelengths were independently determined for each inhibitor. Reported data represent the average of at least three independent experiments. Data were fit to a quadratic equation derived from the thermodynamic expression of binding equilibrium:
[formula] where [C]0 represents the total concentration of inhibitor and of c-Myc peptide. The value of KD was determined from the experimental polarization data by fitting to Eq. 2 using KaleidaGraph (Synergy Software, Reading, Pa.) where pol0 is the polarization in the absence of binding and Δpol is the total change in polarization (Park, S. H. & Raines, R. T. Fluorescence polarization assay to quantify protein-protein interactions. Methods in Molecular Biology 261, 161-6 (2004)).
[formula] Due to the very tight binding of some of the tested compounds, it was impossible to perform a full binding titration with an acceptable fluorescence intensity, therefore the polo parameter was experimentally determined from samples of each compound in the absence of c-Myc353-437 at a concentration of 25 μM. Binding specificity experiments were performed by monitoring the FP of 10 μM inhibitors solutions in the above-described buffer in the presence of equimolar p21 Max. […] Circular Dichroism.
Also in this case the c-Myc binding affinity was little affected by the introduction of the linker chain (Table 1, FIG. 11).
We then measured the affinity of the synthesized bivalent inhibitors, by monitoring the FP of the compounds nitrobenzofurazan moiety. […] The estimated free energy of binding of the bivalent compounds was roughly proportional to the sum of those of their monovalent components. In the thermodynamic analysis of multivalent binding a ΔG^s term is used to relate the free energy of binding of a multivalent compound to the sum of those of its monovalent components. This term implies the diverse energy contributions resulting from the linking of independent binding components. The ΔG^s term generally constitutes a negative contribution to the binding affinity of distinct binding components connected by a flexible linker to a given target.

c-Myc 363-381 = biological target: T2, c-Myc 363-381 (Homo sapiens, UniProt P01106); assay: Fluorescence polarization titration, truncated c-Myc peptide 363-381; conditions: Table 2; segment with binding site of 1; read-out: Binding affinity to c-Myc 363-381
T2 construct: The synthetic peptide c-Myc363-381 is described in Follis; host or cells: synthetic peptide
Description: as §1, with “The synthetic peptide c-Myc363-381 is described in Follis, A. V., Hammoudeh, D. I., Wang, H., Prochownik, E & Metallo, S. J. Structural rationale for the coupled binding and unfolding of the c-Myc oncoprotein by small molecules. Chemistry & Biology 15, 1149-1155 (2008).” left out
Samples were analyzed in a Photon Technology International QuantaMaster fluorimeter (Birmingham, N.J.) equipped with polymer sheet polarizers. […] Excitation and emission wavelengths were independently determined for each inhibitor. […]

c-Myc 400-439 = biological target: T3, c-Myc 400-439 (Homo sapiens, UniProt P01106); assay: Fluorescence polarization titration, truncated c-Myc segment; conditions: Table 2; segment with binding site of 2; read-out: Binding affinity to c-Myc 400-439
T3 construct: its truncated version c-Myc390-439 were produced from the c-Myc/pET SKB3 construct; 6xHis with TEV site (N, cleaved yes); made in house; host or cells: E. coli BL21DE3(pLysS)
T3 sequence (P01106 405-454): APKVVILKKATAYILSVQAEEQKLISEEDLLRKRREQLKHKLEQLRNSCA

T1 sequence (P01106 368-452): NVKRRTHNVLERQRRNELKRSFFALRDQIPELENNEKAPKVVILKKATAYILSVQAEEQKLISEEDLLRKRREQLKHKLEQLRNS

Structure (SMILES) | Kd [1] | Kd (c-Myc 363-381) | Kd (c-Myc 400-439)
O=C1NC(=S)S/C1=C\c1ccc(C(=O)NCCCCCNC(=O)c2cccc(Nc3ccc([N+](=O)[O-])c4nonc34)c2)cc1 [compound 12, N-[5-({3-[(7-nitro-2,1,3-benzoxadiazol-4-yl)amino]phenyl}formamido)pentyl]-4-{[(5Z)-4-oxo-2-sulfanylidene-1,3-thiazolidin-5-ylidene]methyl}benzamide] | 400 ± 100 nM | – | –
O=C1NC(=S)SC1=Cc1ccc(C(=O)NCCCCCNC(=O)c2ccc(Nc3ccc([N+](=O)[O-])c4nonc34)cc2)cc1 [compound 13] | 4.7 ± 0.8 nM | 0.8 ± 0.6 nM | 53 ± 16 nM
CCc1ccc(/C=C2\SC(=O)N(CCCCCCNC(=O)c3ccccc3Nc3ccc([N+](=O)[O-])c4nonc34)C2=O)cc1 [compound 16, N-{6-[(5Z)-5-[(4-ethylphenyl)methylidene]-2,4-dioxo-1,3-thiazolidin-3-yl]hexyl}-2-[(7-nitro-2,1,3-benzoxadiazol-4-yl)amino]benzamide amine] | 2.2 ± 0.2 nM | – | –
CCc1ccc(C=C2SC(=O)N(CCCCCCNC(=O)c3cccc(Nc4ccc([N+](=O)[O-])c5nonc45)c3)C2=O)cc1 [compound 17] | 110 ± 20 nM | – | –
